Test results from ChEMBL document CHEMBL1955809, “Discovery of GS-9256: a novel phosphinic acid derived inhibitor of the hepatitis C virus NS3/4A protease with potent clinical activity” (Bioorg Med Chem Lett, 2012).
Calls of active or inactive are those of the source. The calls are words filed in the database; no cut-off is given here.

What was measured:
[1] = Permeability from apical to basolateral side in human Caco2 cells; assay type: ADME, cell-based; conditions: Caco-2, read-out: permeability
Hepatitis C virus [2] = assay: Inhibition of HCV1b NS3/4A protease; design: species or system Hepatitis C virus subtype 1b; conditions: for IC50: Hepatitis C virus
Hepatitis C virus [3] = assay: Antiviral activity against HCV genotype 1b infected in human Huh cells expressing luc gene by replicon assay; assay type: functional, organism-based, Hepacivirus hominis
[4] = Permeability from basolateral to apical side in human Caco2 cells; assay type: ADME, cell-based; conditions: Caco-2, read-out: permeability
[5] = Selectivity ratio of IC50 for human leukocyte protease to IC50 for HCV1b NS3/4A protease
[6] = Selectivity ratio of IC50 for porcine pancreatic elastase to IC50 for HCV1b NS3/4A protease
[7] = Selectivity ratio of IC50 human protease 3 to IC50 for HCV 1b NS3/4A protease
[8] = Drug excretion in iv dosed bile-cannulated rat bile assessed as parent compound level after 4 hrs; assay type: ADME, organism-based; conditions: read-out: Ae
[9] = Half life in human; assay type: ADME, organism-based; conditions: in vivo
[10] = target: Voltage-gated inwardly rectifying potassium channel KCNH2 (Homo sapiens, UniProt Q12809); assay: Inhibition of human ERG up to 25 uM
Chain of Voltage-gated inwardly rectifying potassium channel KCNH2 (Q12809 whole entry): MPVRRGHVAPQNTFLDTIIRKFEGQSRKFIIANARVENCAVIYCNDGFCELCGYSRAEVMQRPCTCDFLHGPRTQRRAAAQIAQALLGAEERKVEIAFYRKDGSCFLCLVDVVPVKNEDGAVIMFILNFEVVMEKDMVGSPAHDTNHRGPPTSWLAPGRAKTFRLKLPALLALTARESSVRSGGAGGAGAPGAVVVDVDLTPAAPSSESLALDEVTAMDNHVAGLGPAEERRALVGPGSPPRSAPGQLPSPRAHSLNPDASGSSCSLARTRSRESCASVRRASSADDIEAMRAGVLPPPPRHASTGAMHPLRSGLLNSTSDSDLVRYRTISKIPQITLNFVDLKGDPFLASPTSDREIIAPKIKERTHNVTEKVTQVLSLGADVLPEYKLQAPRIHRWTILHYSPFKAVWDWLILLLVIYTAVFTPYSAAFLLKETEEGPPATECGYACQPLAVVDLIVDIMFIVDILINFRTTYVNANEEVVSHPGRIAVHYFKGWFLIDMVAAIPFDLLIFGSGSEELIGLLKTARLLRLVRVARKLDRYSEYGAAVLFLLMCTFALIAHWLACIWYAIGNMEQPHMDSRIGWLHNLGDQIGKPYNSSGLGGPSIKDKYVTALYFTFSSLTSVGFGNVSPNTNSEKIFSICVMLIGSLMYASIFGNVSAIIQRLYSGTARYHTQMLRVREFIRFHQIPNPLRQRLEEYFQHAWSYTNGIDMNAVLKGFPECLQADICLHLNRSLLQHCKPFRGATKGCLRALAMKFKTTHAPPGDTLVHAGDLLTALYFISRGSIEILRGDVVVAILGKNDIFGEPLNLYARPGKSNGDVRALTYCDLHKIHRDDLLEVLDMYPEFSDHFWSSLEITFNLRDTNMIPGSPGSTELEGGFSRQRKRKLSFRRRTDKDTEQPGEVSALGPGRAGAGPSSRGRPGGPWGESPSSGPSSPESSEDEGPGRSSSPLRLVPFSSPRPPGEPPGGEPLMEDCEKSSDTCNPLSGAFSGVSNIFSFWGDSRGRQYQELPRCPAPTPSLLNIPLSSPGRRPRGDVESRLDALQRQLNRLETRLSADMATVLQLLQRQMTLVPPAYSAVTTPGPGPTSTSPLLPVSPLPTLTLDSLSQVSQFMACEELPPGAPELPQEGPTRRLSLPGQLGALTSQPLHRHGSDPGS

Hepatitis C virus [11] = assay: Antiviral activity against HCV genotype 1 infected in human at 150 mg, po; assay type: functional, Hepacivirus hominis
[12] = target: T1, Solute carrier family 22 member 6 (Homo sapiens, UniProt Q4U2R8); assay: Activity at OAT1
T1 sequence (Q4U2R8 whole entry): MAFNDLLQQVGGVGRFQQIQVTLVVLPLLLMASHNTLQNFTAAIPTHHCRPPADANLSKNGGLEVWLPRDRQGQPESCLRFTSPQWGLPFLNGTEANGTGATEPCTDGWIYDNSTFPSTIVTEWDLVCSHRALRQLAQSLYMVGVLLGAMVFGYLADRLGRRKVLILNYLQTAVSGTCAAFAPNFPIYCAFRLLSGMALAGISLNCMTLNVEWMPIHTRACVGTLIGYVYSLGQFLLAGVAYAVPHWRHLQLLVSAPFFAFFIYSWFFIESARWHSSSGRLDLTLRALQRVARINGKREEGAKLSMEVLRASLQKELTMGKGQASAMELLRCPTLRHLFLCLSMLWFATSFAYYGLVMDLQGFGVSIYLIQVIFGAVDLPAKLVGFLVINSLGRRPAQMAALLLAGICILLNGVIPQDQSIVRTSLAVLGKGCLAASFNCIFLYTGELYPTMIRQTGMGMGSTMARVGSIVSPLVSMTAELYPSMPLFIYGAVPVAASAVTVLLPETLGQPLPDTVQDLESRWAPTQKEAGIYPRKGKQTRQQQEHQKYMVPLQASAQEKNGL

Hepatitis C virus [13] = assay: Antiviral activity against HCV genotype 1 infected in human at 450 mg, po; assay type: functional, Hepacivirus hominis
[14] = Oral bioavailability in dog at 4 mg/kg; assay type: ADME, organism-based, Canis lupus familiaris; conditions: in vivo
[15] = Selectivity ratio of IC50 for cathepsin D to IC50 for HCV1b NS3/4A protease
[16] = Inhibition of CYP450; assay type: ADME
[17] = Selectivity ratio of IC50 for cathepsin L to IC50 for HCV1b NS3/4A protease
[18] = target: T2, Solute carrier family 22 member 7 (Homo sapiens, UniProt Q9Y694); assay: Activity at OAT2
T2 sequence (Q9Y694 whole entry): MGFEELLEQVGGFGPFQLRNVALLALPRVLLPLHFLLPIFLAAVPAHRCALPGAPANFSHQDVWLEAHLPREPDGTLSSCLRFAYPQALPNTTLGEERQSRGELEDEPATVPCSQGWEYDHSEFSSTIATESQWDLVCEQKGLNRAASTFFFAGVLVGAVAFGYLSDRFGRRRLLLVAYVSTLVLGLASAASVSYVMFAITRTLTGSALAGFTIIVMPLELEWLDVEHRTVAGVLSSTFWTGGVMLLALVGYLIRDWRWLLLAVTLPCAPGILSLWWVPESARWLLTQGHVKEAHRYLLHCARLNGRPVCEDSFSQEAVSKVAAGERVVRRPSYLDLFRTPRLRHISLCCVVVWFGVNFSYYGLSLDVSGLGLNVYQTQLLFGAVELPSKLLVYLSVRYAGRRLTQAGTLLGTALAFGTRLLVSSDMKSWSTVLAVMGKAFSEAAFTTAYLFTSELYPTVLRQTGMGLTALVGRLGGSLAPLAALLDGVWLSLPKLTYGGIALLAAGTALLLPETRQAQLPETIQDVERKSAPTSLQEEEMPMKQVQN

Hepatitis C virus [19] = assay: Antiviral activity against HCV genotype 1 infected in human at 300 mg, po; assay type: functional, Hepacivirus hominis
Bile salt export pump = Bile salt export pump (Homo sapiens, UniProt O95342); assay: Inhibition of BSEP
Chain of Bile salt export pump (O95342 whole entry): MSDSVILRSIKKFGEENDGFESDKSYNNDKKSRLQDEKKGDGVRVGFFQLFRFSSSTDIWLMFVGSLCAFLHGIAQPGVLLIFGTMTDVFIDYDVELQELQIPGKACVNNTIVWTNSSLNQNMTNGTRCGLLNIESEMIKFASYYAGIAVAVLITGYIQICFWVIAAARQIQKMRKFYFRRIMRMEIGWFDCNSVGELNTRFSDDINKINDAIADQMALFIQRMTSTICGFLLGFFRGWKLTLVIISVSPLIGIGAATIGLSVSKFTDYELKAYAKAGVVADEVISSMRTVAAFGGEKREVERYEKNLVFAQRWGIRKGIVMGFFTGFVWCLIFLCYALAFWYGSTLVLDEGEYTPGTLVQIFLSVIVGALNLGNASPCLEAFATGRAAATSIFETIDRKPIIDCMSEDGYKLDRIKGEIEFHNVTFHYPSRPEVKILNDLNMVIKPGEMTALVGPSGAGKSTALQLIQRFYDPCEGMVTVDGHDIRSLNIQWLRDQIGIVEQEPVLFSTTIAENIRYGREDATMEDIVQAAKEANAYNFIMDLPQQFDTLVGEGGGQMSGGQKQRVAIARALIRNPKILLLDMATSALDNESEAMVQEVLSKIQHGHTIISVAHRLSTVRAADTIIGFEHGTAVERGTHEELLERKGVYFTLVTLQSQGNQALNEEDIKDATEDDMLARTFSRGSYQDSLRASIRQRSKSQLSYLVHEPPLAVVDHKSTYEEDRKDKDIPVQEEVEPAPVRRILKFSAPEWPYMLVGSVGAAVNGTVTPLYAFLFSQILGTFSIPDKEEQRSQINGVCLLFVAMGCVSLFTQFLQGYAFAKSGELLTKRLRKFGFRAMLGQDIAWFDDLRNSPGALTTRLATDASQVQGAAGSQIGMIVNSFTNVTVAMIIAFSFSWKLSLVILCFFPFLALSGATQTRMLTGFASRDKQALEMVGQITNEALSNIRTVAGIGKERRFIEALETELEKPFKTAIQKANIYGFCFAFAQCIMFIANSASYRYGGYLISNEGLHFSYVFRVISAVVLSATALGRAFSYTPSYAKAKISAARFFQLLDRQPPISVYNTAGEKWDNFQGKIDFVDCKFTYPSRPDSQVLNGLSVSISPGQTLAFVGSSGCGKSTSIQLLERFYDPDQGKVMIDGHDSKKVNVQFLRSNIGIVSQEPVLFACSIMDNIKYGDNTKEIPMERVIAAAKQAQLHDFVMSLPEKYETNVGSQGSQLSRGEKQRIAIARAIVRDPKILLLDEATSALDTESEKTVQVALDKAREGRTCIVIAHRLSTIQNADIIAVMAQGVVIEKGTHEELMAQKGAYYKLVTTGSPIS

[20] = Inhibition of P-glycoprotein
[21] = Clearance in dog; assay type: ADME, organism-based, Canis lupus familiaris; conditions: in vivo

| Structure (SMILES) | Papp A→B [1] [nm/s] | IC50 (Hepatitis C virus [2]) [nM] | EC50 (Hepatitis C virus [3]) [nM] | Papp B→A [4] [nm/s] | further results |
| --- | --- | --- | --- | --- | --- |
| C=C[C@@H]1C[C@]1(NC(=O)[C@@H]1C[C@@H](Oc2cc(-c3csc(NC(C)C)n3)nc3cc(OC)ccc23)CN1C(=O)[C@@H](NC(=O)OC1CCCC1)C(C)(C)C)P(=O)(O)Cc1c(F)cccc1C(F)(F)F | 5.3 | 6 | 340 | 63.6 |  |
| C=C[C@@H]1C[C@]1(NC(=O)[C@@H]1C[C@@H](Oc2cc(-c3csc(NC(C)C)n3)nc3cc(OC)ccc23)CN1C(=O)[C@@H](NC(=O)OC1CCCC1)C(C)(C)C)P(=O)(O)Cc1ccccc1 | 7 | 7 | 170 | 61 |  |
| C=C[C@@H]1C[C@]1(NC(=O)[C@@H]1C[C@@H](Oc2cc(-c3csc(NC(C)C)n3)nc3cc(OC)ccc23)CN1C(=O)[C@@H](NC(=O)OC1CCCC1)C(C)(C)C)P(=O)(O)Cc1cccc(F)c1 | 3.4 | 8 | 239 | 18 |  |
| C=C[C@@H]1C[C@]1(NC(=O)[C@@H]1C[C@@H](Oc2cc(-c3csc(NC(C)C)n3)nc3cc(OC)ccc23)CN1C(=O)[C@@H](NC(=O)OC1CCCC1)C(C)(C)C)P(=O)(O)Cc1ccc(C)cc1 | 6.9 | 15 | 860 | 120 |  |
| C=C[C@@H]1C[C@]1(NC(=O)[C@@H]1C[C@@H](Oc2cc(-c3csc(NC(C)C)n3)nc3cc(OC)ccc23)CN1C(=O)[C@@H](NC(=O)OC1CCCC1)C(C)(C)C)P(=O)(O)Cc1ccc(OC)cc1 | 7.1 | 10 | 460 | 58.3 |  |
| C=C[C@@H]1C[C@]1(NC(=O)[C@@H]1C[C@@H](Oc2cc(-c3csc(NC(C)C)n3)nc3cc(OC)ccc23)CN1C(=O)[C@@H](NC(=O)OC1CCCC1)C(C)(C)C)P(=O)(O)Cc1c(F)cccc1Cl | 8.9 | 6 | 120 | 58.7 |  |
| COc1ccc2c(O[C@@H]3C[C@H]4C(=O)N[C@]5(P(=O)(O)Cc6c(F)cccc6F)C[C@H]5CCCCCCC[C@H](NC(=O)OC5CCCC5)C(=O)N4C3)cc(-c3csc(NC(C)C)n3)nc2c1Cl [GS-9256] |  | 4 | 20 |  | Ratio IC50 [5]: 987; Ratio IC50 [6]: 28600; Ratio IC50 [7]: 6600; dose excreted at 4 h [8]: 95%; half-life [9]: 7 h; inhibition (INH) [10]: Not Active; Activity (Hepatitis C virus [11]): -1.8 log10IU/ml; Activity [12]: Active; Ki (Hepatitis C virus [2]): 0.089 nM; Activity (Hepatitis C virus [13]): -2.8 log10IU/ml; bioavailability [14]: 21%; Ratio IC50 [15]: 5300; inhibition (INH) [16]: Not Active; Ratio IC50 [17]: 5400; Activity [18]: Active; Activity (Hepatitis C virus [19]): -2.4 log10IU/ml; inhibition (INH) (Bile salt export pump): Active; inhibition [20]: Active |
| C=C[C@@H]1C[C@]1(NC(=O)[C@@H]1C[C@@H](Oc2cc(-c3csc(NC(C)C)n3)nc3cc(OC)ccc23)CN1C(=O)[C@@H](NC(=O)OC1CCCC1)C(C)(C)C)P(=O)(O)Cc1c(C)cccc1C | 1.9 | 63 | 7700 | 29.3 |  |
| COc1ccc2c(O[C@@H]3C[C@H]4C(=O)N[C@]5(P(=O)(O)Cc6c(F)cccc6F)C[C@H]5CCCCCCC[C@H](NC(=O)OC5CCCC5)C(=O)N4C3)cc(-c3csc(NC(C)C)n3)nc2c1F |  | 11 | 43 |  | bioavailability [14]: 6% |
| C=C[C@@H]1C[C@]1(NC(=O)[C@@H]1C[C@@H](Oc2cc(-c3csc(NC(C)C)n3)nc3cc(OC)ccc23)CN1C(=O)[C@@H](NC(=O)OC1CCCC1)C(C)(C)C)P(=O)(O)Cc1cccc(C)c1 | 6.4 | 8 | 331 | 35 |  |
| C=C[C@@H]1C[C@]1(NC(=O)[C@@H]1C[C@@H](Oc2cc(-c3csc(NC(C)C)n3)nc3cc(OC)ccc23)CN1C(=O)[C@@H](NC(=O)OC1CCCC1)C(C)(C)C)P(=O)(O)Cc1ccccc1OC | 4.3 | 6 | 48 | 62 |  |
| COc1ccc2c(O[C@@H]3C[C@H]4C(=O)N[C@]5(P(=O)(O)Cc6c(F)cccc6F)C[C@H]5CCCCCCC[C@H](NC(=O)OC5CCCC5)C(=O)N4C3)cc(-c3csc(NC(C)C)n3)nc2c1Br |  | 3 | 7 |  | bioavailability [14]: 4.1% |
| COc1ccc2c(O[C@@H]3C[C@H]4C(=O)N[C@]5(P(=O)(O)Cc6ccccc6)C[C@H]5CCCCCCC[C@H](NC(=O)OC5CCCC5)C(=O)N4C3)cc(-c3csc(NC(C)C)n3)nc2c1 |  | 6 | 5 |  | clearance [21]: 0.36 L/h/kg |
| C=C[C@@H]1C[C@]1(NC(=O)[C@@H]1C[C@@H](Oc2cc(-c3csc(NC(C)C)n3)nc3cc(OC)ccc23)CN1C(=O)[C@@H](NC(=O)OC1CCCC1)C(C)(C)C)P(=O)(O)Cc1cccc(OC)c1 | 3.9 | 7 | 540 | 82.8 |  |
| C=C[C@@H]1C[C@]1(NC(=O)[C@@H]1C[C@@H](Oc2cc(-c3csc(NC(C)C)n3)nc3cc(OC)ccc23)CN1C(=O)[C@@H](NC(=O)OC1CCCC1)C(C)(C)C)P(=O)(O)Cc1ccccc1F | 5.3 | 4 | 170 | 27.4 |  |
| C=C[C@@H]1C[C@]1(NC(=O)[C@@H]1C[C@@H](Oc2cc(-c3csc(NC(C)C)n3)nc3cc(OC)ccc23)CN1C(=O)[C@@H](NC(=O)OC1CCCC1)C(C)(C)C)P(=O)(O)Cc1ccc(F)cc1 | 8.4 | 7 | 284 | 43.8 |  |
| COc1ccc2c(O[C@@H]3C[C@H]4C(=O)N[C@]5(C(=O)O)C[C@H]5/C=C\CCCCC[C@H](NC(=O)OC5CCCC5)C(=O)N4C3)cc(-c3csc(NC(C)C)n3)nc2c1 [CILUPREVIR] |  | 1 | 1 |  |  |
| COc1ccc2c(O[C@@H]3C[C@H]4C(=O)N[C@]5(P(=O)(O)Cc6c(F)cccc6F)C[C@H]5CCCCCCC[C@H](NC(=O)OC5CCCC5)C(=O)N4C3)cc(-c3csc(NC(C)C)n3)nc2c1 |  | 4 | 10 |  | bioavailability [14]: 2.9% |
| C=C[C@@H]1C[C@]1(NC(=O)[C@@H]1C[C@@H](Oc2cc(-c3csc(NC(C)C)n3)nc3cc(OC)ccc23)CN1C(=O)[C@@H](NC(=O)OC1CCCC1)C(C)(C)C)P(=O)(O)Cc1ccccc1C | 6.9 | 8 | 146 | 39 |  |
